Measurements taken from PMC2504292 (Nucleic Acids Research, 2008).

T1: PARN RRM (cap-binding domain of mouse PARN, residues 430-516) (Mus musculus, UniProt Q8VDG3)
T1 sequence (Q8VDG3 430-516): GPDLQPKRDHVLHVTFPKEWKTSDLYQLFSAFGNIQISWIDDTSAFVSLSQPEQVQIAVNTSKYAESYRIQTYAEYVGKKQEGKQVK

T2: PARN RRM (cap-binding domain), NMR/ITC construct (mouse, UniProt Q8VDG3 430-516)
T2 sequence: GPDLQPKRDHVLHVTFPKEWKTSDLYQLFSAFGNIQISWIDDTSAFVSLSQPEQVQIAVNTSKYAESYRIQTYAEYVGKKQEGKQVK


Tests used:
[1] = target: T1, PARN RRM (cap-binding domain of mouse PARN, residues 430-516); experiment: isothermal titration calorimetry
[2] = target: T2, PARN RRM (cap-binding domain), NMR/ITC …; experiment: NMR HSQC titration

Molecule	Kd [1]	binding result [2]
C[n+]1cn([C@@H]2O[C@H](COP(=O)(O)OP(=O)(O)OP(=O)(O)OC[C@H]3O[C@@H](n4cnc5c(=O)[nH]c(N)nc54)[C@H](O)[C@@H]3O)[C@@H](O)[C@H]2O)c2nc(N)[nH]c(=O)c21 [m7GpppG]	~45 µM	–
AAAAAAAAAA (ssRNA) [A10 10-mer poly(A)]	–	no binding
